SMILES strings stand for the structures. Converted amounts (≈) assume the structure as drawn.

For this data set the following is noted: buffer; pH 7.4; 200.0 µM.
Compound `CCOC(=O)c1[nH]c(C)c(CC(C)C)c1C` displayed a solubility (kinetic) of 24 µg/mL (≈ 107 µM).

`Cc1cc(C)cc(NC(=S)N2CCCC2)c1` returned a kinetic solubility above 35.2 µg/mL.

Compound `COC(=O)c1sccc1NC(=O)Nc1ccccc1Cl` registered a solubility (kinetic) of 25.8 µg/mL (≈ 83 µM).

`CC(C)=CCN1CCN(Cc2ccc(C)s2)CC1CCO` (configuration not stated) gave a kinetic solubility of 36.4 µg/mL (≈ 118 µM). The solubility kinetic values of the last two compounds are within 1.5-fold of each other.

Consider `CCOC(=O)C1CCCN(S(=O)(=O)c2ccc3ccccc3c2)C1` (configuration not stated), for which the kinetic solubility was found to be 13 µg/mL (≈ 37.4 µM).

`C[N+](C)(C)CCCCCC[N+](C)(C)C.[Br-]` registered a solubility (kinetic) above 54.3 µg/mL.

The compound `Cc1cccc(NC(=O)Nc2c(C)n(C)n(-c3ccccc3)c2=O)c1` had a solubility (kinetic) above 50.5 µg/mL.

Compound `COc1ccc(OCC(=O)Nc2ccc(S(=O)(=O)N(C)c3ccccc3)cc2)cc1` came in with a solubility (kinetic) of 1.8 µg/mL (≈ 4.22 µM).

In turn, `O=C(Nc1ccccc1)c1cn(CCBr)cn1` came in with a solubility (kinetic) above 44.1 µg/mL.

In turn, `CCc1nc2sc3c(c2c(=O)n1CCO)CCC3` gave a solubility (kinetic) above 39.7 µg/mL.

Compound `C=CCn1c(O)c(C(C)=Nc2ccc3c(c2)CCC3)c(=O)[nH]c1=O` gave a solubility (kinetic) of 0.8 µg/mL (≈ 2.46 µM).

`CN(C)C=NC(=O)c1cc(C(=O)c2ccc(F)cc2)c[nH]1` displayed a solubility (kinetic) above 43.1 µg/mL.

Consider `O=C(Nc1ccc2oc(-c3ccncc3)nc2c1)c1ccc(F)cc1`, for which the solubility (kinetic) was 0.9 µg/mL (≈ 2.7 µM).

The compound `CN1CCc2c1nc1ccccc1c2NC(=O)CN1CCCC1` gave a kinetic solubility of 28.9 µg/mL (≈ 93.1 µM).

For `Cc1onc(-c2ccccc2)c1CNS(=O)(=O)c1ccc(F)cc1F`, the kinetic solubility stood at 51.6 µg/mL (≈ 142 µM).

For the compound `COc1ccccc1NC(=O)COC(=O)c1ccc2ccccc2n1`, the solubility (kinetic) was determined as 13.1 µg/mL (≈ 38.9 µM). This solubility kinetic is about 3.9-fold lower than that of the compound before.

For the compound `NC(=O)Nc1ccc(C(=O)OCC(=O)Nc2ccc(Cl)cn2)cc1`, the kinetic solubility stood at 5.1 µg/mL (≈ 14.6 µM).

With `Cc1cccc(C)c1OCCN1C(=O)NC(C)(c2ccccc2)C1=O` (configuration not stated), the kinetic solubility was determined as 5 µg/mL (≈ 14.8 µM).

`COc1cccc2cc(C(=O)NCc3ccc(C)cc3)c(=O)oc12`: the kinetic solubility is below 0.7 µg/mL.

For `CC1CCCN(c2cc(N(C)CCO)c([N+](=O)[O-])c3nonc23)C1` (configuration not stated), the kinetic solubility is above 50.3 µg/mL.

With `COC(=O)c1ccccc1CSc1nsc(C)c1C#N`, the kinetic solubility was below 0.3 µg/mL.

In the case of `CCN(C(=O)C1CCCO1)c1ccccc1` (configuration not stated), the solubility (kinetic) came out at 25.2 µg/mL (≈ 115 µM).

Regarding `CCOC(=O)C(O)C1CCc2c([nH]c3ccc(C)cc23)C1=O` (configuration not stated), the kinetic solubility turned out to be 22.6 µg/mL (≈ 75 µM).

`COc1ccccc1NS(=O)(=O)c1cc(N)ccc1N1CCCCC1` came in with a solubility (kinetic) of 6.1 µg/mL (≈ 16.9 µM).

`O=C(Cc1ccsc1)Nc1ccccc1F` gave a solubility (kinetic) above 35.3 µg/mL.

In the case of `O=[N+]([O-])c1ccc(SCc2ccncc2)nc1`, the solubility (kinetic) was found to be 30.5 µg/mL (≈ 123 µM).

`COc1ccccc1NC(=O)C(C)N(C)CC(=O)Nc1cccc2ccccc12.Cl` (configuration not stated) returned a solubility (kinetic) above 64.2 µg/mL.

`CC1(C)Oc2ccc3ccc(=O)oc3c2/C(=N/O)C1=O`: the solubility (kinetic) was above 41 µg/mL.

The compound `Nc1cc(Cl)ccc1C(=O)OCC(=O)N1CCCCCC1` gave a solubility (kinetic) of 5.4 µg/mL (≈ 17.4 µM).

In turn, `Cc1ccc(NC(=S)NCc2ccc(Cl)cc2)c(C)c1` returned a kinetic solubility of 2.3 µg/mL (≈ 7.54 µM).

For the compound `Cc1nc(-c2ccc3c(c2)CCC(=O)N3)cs1`, the kinetic solubility was found to be 31.7 µg/mL (≈ 130 µM).

Compound `CC(=O)c1ccc(OCC(=O)N2CCCC2c2ccc3c(c2)OCCCO3)cc1` (configuration not stated) showed a solubility (kinetic) of 49.2 µg/mL (≈ 124 µM).

Turning to `COc1ccc(NS(=O)(=O)c2c(C)[nH]c(=O)[nH]c2=O)cc1OC`, the kinetic solubility is above 51.2 µg/mL.

The compound `O=S(=O)(c1cccs1)N1CCN(c2ccccc2F)CC1` registered a kinetic solubility of 15.6 µg/mL (≈ 47.8 µM).

With `Cc1ccc(-c2c(C)n([O-])c3c([n+]2=O)CCCC3)cc1`, the kinetic solubility was above 40.5 µg/mL.

On to `COC(=O)c1ccc(NC(=O)c2ccc(OC(C)=O)c(OC)c2)cc1`, for which the solubility (kinetic) came to 3.1 µg/mL (≈ 9.03 µM).

With `Cc1ccnc(NC(=O)Cn2c(=O)oc3ccccc32)c1`, the kinetic solubility turned out to be 10.9 µg/mL (≈ 38.5 µM).

With `CC(C)NC(=O)NC(=O)COC(=O)C1(C)CC1(Cl)Cl` (configuration not stated), the kinetic solubility was above 46.7 µg/mL.

In turn, `CSc1ncccc1C(=O)N1CCN(S(=O)(=O)c2ccc3c(c2)OCCO3)CC1` came in with a kinetic solubility above 65.3 µg/mL.

The compound `Cc1cc(/C=C2\NC(=S)NC2=O)c(C)n1-c1cccnc1` returned a kinetic solubility of 4.8 µg/mL (≈ 16.1 µM).

Take `COc1ccc(NC(=O)c2cccs2)cn1`: the solubility (kinetic) is above 35.1 µg/mL.

On to `Clc1ccc(Cn2cnc3ccccc32)cc1`, for which the kinetic solubility worked out at 27 µg/mL (≈ 111 µM).

Take `COc1ccccc1CN1CCCC(CNC(=O)c2cccc3ccccc23)C1` (configuration not stated): the kinetic solubility is 49.5 µg/mL (≈ 127 µM).

In turn, `O=C(c1ccc(F)cc1)N1CCN(c2ccccn2)CC1` yielded a solubility (kinetic) above 42.8 µg/mL.

`Cc1cc(=O)[nH]c(SCC(=O)NCc2ccc3c(c2)OCO3)n1` showed a kinetic solubility above 50 µg/mL.

Take `CCc1ccc2c(c1)C(O)(CC(=O)c1cccs1)C(=O)N2` (configuration not stated): the solubility (kinetic) was above 45.2 µg/mL.

As for `CCN(c1ccccc1)S(=O)(=O)c1ccc(Cl)c(C(=O)O)c1`, the solubility (kinetic) is above 51 µg/mL.

Compound `CC1CN(C(=O)/C(=C/c2ccco2)NC(=O)c2ccccc2)CC(C)O1` (configuration not stated) showed a solubility (kinetic) above 53.2 µg/mL.

For the compound `COc1ccc(CCC(=O)OCC(=O)NC(=O)c2ccc(Cl)cc2)cc1`, the solubility (kinetic) came to 7.2 µg/mL (≈ 19.2 µM).

Consider `COc1cc(NC(=O)CCN2CCN(C)CC2)cc(OC)c1`, for which the kinetic solubility was above 46.1 µg/mL.

For the compound `Cc1cc(NS(=O)(=O)c2ccc(C(C)C)cc2)no1`, the solubility (kinetic) stood at 40.2 µg/mL (≈ 143 µM).

On to `Cc1sc2nc(-c3ccc(Br)cc3)oc(=O)c2c1C`, for which the solubility (kinetic) is below 0.7 µg/mL.

A word on the kinetic solubility: it is solubility judged after dilution from a stock solution rather than from solid.

Source of the values: PubChem BioAssay AID1996.
